Experimental data taken from EP0332679B1, “ANTIVIRAL CO[…] […] AND METHOD FOR TREATING […]” (NEW YORK UNIVERSITY, priority 1987, dated 1989).
Where “and” joins values, the source holds several entries; their conditions need not be identical. Identical values can stand only once. Entries after “also recorded” stand apart in the source; their conditions may differ.

Legend:
[1] = in vivo; cited from earlier work
[2] = in vivo; cited from earlier work; remark: listed apart in the source
[3] = tested on: Radiation Leukemia Virus (RadLV); assay: H-2 antigen expression in thymocytes (FACS) after intrathymic inoculation of radiation leukemia virus; format: in vivo, B10.T(6R) mice
From the text: The intrathymic inoculation of murine radiation leukemia virus in susceptible strains of mice results in the malignant transformation of the thymocytes and the development of overt leukemia (as described in Meruelo, D. et al J. Exp. Med. 147: 470-487, 1978). […] Among the early events which follow the viral infection in some mouse strains is a dramatic increase in the cell surface expression of class I H-2 antigens. This increase is then followed by a reduction in the expression of these antigens after the malignant transformation and subsequent development of leukemia. The changes in H-2 antigen expression have been utilized to monitor viral infectivity and to determine the effects of Hy and Ps on the level of infectivity of this virus.
Murine radiation leukemia virus (RadLV) was inoculated intrathymically into B10.T(6R) mice as described in Meruelo et al (supra). Groups of six mice were treated 24 h later with 30 µg per mouse of compound Hy administered intraperitoneally in isotonic saline solution. The mice were sacrificed ten days later and the expression of Class I H-2 antigens determined by analysis with a fluorescence activated cell sorter (Ortho Cytofluorograph Model 50H, Ortho Diagnostic Systems, Westwood, MA) (FACS), using X-56 anti-H-2D^d mouse monospecific antibodies (as described in Meruelo, et al supra; similar antibodies are available as ATCC No. HB75, American Type Culture Collection, Rockville, MD).

[4] = tested on: Friend Leukemia Virus (FV); assay: Splenomegaly after Friend Leukemia Virus infection, compound given intraperitoneally 24 h after intravenous virus; format: in vivo, BALB/c mice; settings: for Spleen weight: individual mice
From the text: Friend Leukemia virus (FV) an aggressive retrovirus induces an acute erythroleukemia in sensitive strains of mice such as BALB/c and NIH SWISS mice (as described in Friend, C. J. Exp. Med. 105: 307-324, 1957; Friend, C. et al Nat. Cancer Inst. Monogr. 22: 505-522, 1966; Friend, C. et al Proc. Natl. Acad. Sci. U.S.A. 68: 378-383, 1971). The malignant transformation is the result of the combined activities of the spleen focus forming virus (SFFV) and the ecotropic murine Friend Leukemia helper virus (F-MuLv). The acute erythroleukemia is characterized by hepatosplenomegaly (a marked increase in the size of the spleen and liver) and a severe anemia.
Friend Leukemia virus was prepared by homogenizing the enlarged spleen of a mouse previously infected with FV, 10 days after intravenous virus injection. The spleen was homogenized in phosphate buffered saline in a volume equal to 10 times the weight of the isolated spleen.
The effects of Hy and Ps on the increase in spleen size (splenomegaly) of BALB/c mice (Jackson Labs, Bar Harbor, ME) was examined. […] The animals were then sacrificed ten days later and their spleens weighed.

[5] = tested on: Friend Leukemia Virus (FV); assay: Liver function (serum liver-associated proteins) of FV infected mice with or without compound; format: in vivo, BALB/c mice; settings: for CHOLEST: pooled serum of 4 mice
From the text: BALB/c mice were inoculated with FV at a concentration of 2x10⁵ FFU. Each group of animals contained 4 mice, and analyses were done in pooled aliquots.
In Table 3, BU = Total Bilirubin, AP = Alkaline phosphatase, LDH = Lactate dehydrogenase, SGOT = Serum glutamyl aminotransferase, SGPT = […], and GGT = Gamma-glutamyl-transpeptidase.

[6] = tested on: Friend Leukemia Virus (FV); assay: Splenomegaly after simultaneous intravenous co-administration of compound with FV; format: in vivo, mice; settings: for Spleen Weights: individual mice
Method: A different experimental design was also tested involving the simultaneous intravenous co-administration of Ps with the FV complex. In this case, the viral preparation was mixed with Ps at various concentrations and the mixture was injected into the mouse tail vein in a final volume of 0.5ml. The mice were sacrificed ten days later, the spleens weighed and the level of inhibition of splenomegaly subsequently determined.

[7] = FV 2x10^5 FFU, 2 injections 80 μg/mouse
[8] = FV 2x10^5 FFU, single i.p. injection 80 μg/mouse
[9] = FV 10^6 FFU, 2 injections 80 µg/mouse
[10] = FV 10^6 FFU, single i.p. injection 80 µg/mouse
[11] = IPFVIVPS: FV intraperitoneal, Ps intravenous, pooled serum
[12] = IVFVIPPS: FV intravenous, Ps intraperitoneal, pooled serum

For `Cc1cc(O)c2c(=O)c3c(O)cc(O)c4c5c(O)cc(O)c6c(=O)c7c(O)cc(C)c8c1c2c(c34)c(c78)c65` [Hy, hypericin], the “photosensitivity (in words)” value [1] is listed as “produce photosensitivity upon ingestion”, the “effect on the human organism (in words)” value [2] is listed as “tonic and tranquilizing effect” and the “% inhibition (of virus-induced increase in H-2 antigen expression)” value ([3]; mouse, in vivo) is listed as “(1) % inhibition = 100-[(Treated 30 μg) - (Base Line) / Virus Induced - Base Line] x100=82%”. For the same molecule, the “% of cells stained with antibody” value ([3]; mouse, in vivo, ip) was 76.7% and 77.2% and 96.3% and 84.8% and 54.0% and 97.8%, the “% of cells stained with antibody, mean (x̄)” value ([3]; mouse, in vivo, ip) was “x̄=81.13%” and the “effect on RadLV-induced increase in H-2 expression (in words)” value ([3]; mouse, in vivo, ip) was “significant inhibition in the increase in H-2 expression in four of the six mice tested”.
For `Cc1cc(O)c2c(=O)c3c(O)cc(O)c4c5c(O)cc(O)c6c(=O)c7c(O)cc(CO)c8c1c2c(c34)c(c65)c78` [Ps, pseudohypericin], the “effect on RadLV-induced increase in H-2 expression (in words)” value ([3]; 30 µg per mouse i.p. 24 h after viral inoculation) was “No effects on H-2 expression”, the “mean fluorescent intensity in fluorescent units” value ([3]; individual mice, 30 μg/mouse i.p. 24 h after intrathymic RadLV, thymocytes ten days later) was “(713.3) fluorescent units; also recorded: (639) fluorescent units” and the “% of cells stained with antibody” value ([3]; individual mice, 30 μg/mouse i.p. 24 h after intrathymic RadLV, thymocytes ten days later, anti-H-2D^d antibody) was 97.4% and 94.3%. For the same molecule, the “% Inhib (splenomegaly)” value [4, 7] was 81.7%, the “Net change from control (spleen weight)” value [4, 7] was “Net change from control=0.1292” and the “Spleen weight, mean (x̄)” value [4, 7] was “x̄=0.3138±0.1197 g”. The “% Inhib (splenomegaly)” value ([4]; FV 2x10^5 FFU, 2 injections 80 μg/mouse, listed as PS) was “% Inhib=81.15”, the “% Inhib (splenomegaly)” value [4, 8] was 89.6% and the “Net change from control (spleen weight)” value [4, 8] was “Net change from control=0.0714”. For the same molecule, the “Spleen weight, mean (x̄)” value [4, 8] was “x̄=0.2560±0.0723 g”, the “% Inhib (splenomegaly)” value ([4]; FV 2x10^5 FFU, single i.p. injection 80 μg/mouse, listed as PS) was “% Inhib=89.58” and the “% Inhib (splenomegaly)” value [4, 9] was 90.7%. The “Net change from control (spleen weight)” value [4, 9] was “Net change from control=0.0841”, the “Spleen weight, mean (x̄)” value [4, 9] was “x̄=0.2687±0.0621 g” and the “% Inhib (splenomegaly)” value ([4]; FV 10^6 FFU, 2 injections 80 µg/mouse, listed as PS) was “% Inhib=90.70”. For the same molecule, the “% Inhib (splenomegaly)” value [4, 10] was 93.8%, the “Net change from control (spleen weight)” value [4, 10] was “Net change from control=0.0558” and the “Spleen weight, mean (x̄)” value [4, 10] was “x̄=0.2404±0.0482 g”. The “% Inhib (splenomegaly)” value ([4]; FV 10^6 FFU, single i.p. injection 80 µg/mouse, listed as PS) was “% Inhib=93.82”, the Spleen weight [4, 7] was 0.2722 Spleen weight (g ) and 0.2438 Spleen weight (g ) and 0.4924 Spleen weight (g ) and 0.2469 Spleen weight (g ) and the Spleen weight [4, 8] was 0.2208 Spleen weight (g ) and 0.1791 Spleen weight (g ) and 0.3457 Spleen weight (g ) and 0.2784 Spleen weight (g ). For the same molecule, the Spleen weight ([4]; FV 10^6 FFU i.v., 2 daily consecutive i.p. injections of 80 µg/mouse) was 0.2457 Spleen weight (g ) and 0.3400 Spleen weight (g ) and 0.2938 Spleen weight (g ) and 0.1956 Spleen weight (g ), the Spleen weight ([4]; FV 10^6 FFU i.v., single i.p. injection 80 µg/mouse 24 h later, sacrificed ten days later) was 0.2831 Spleen weight (g ) and 0.2761 Spleen weight (g ) and 0.2215 Spleen weight (g ) and 0.1810 Spleen weight (g ) and the CHOLEST ([5]; IPFVIVPS: FV intraperitoneal (2x10^5 FFU), Ps intravenous) was 137 mg/dL. The ALBUMIN [5, 11] was 3.2 g/dL, the “AP (Alkaline phosphatase)” value [5, 11] was 200 IU/l and the “BU (Total Bilirubin)” value [5, 11] was 0.3 mg/dL. The “GGT (Gamma-glutamyl-transpeptidase)” value [5, 11] was 4 miu/ml, the “LDH (Lactate dehydrogenase)” value [5, 11] was 2305 IU/l and the SGOT [5, 11] was 244 IU/l. The SGPT [5, 11] was 135 IU/l, the “Total PROTEIN” value [5, 11] was 5.5 g/dL and the CHOLEST ([5]; IVFVIPPS: FV intravenous (2x10^5 FFU), Ps intraperitoneal) was 109 mg/dL. For the same molecule, the ALBUMIN [5, 12] was 3.4 g/dL, the “AP (Alkaline phosphatase)” value [5, 12] was 226 IU/l and the “BU (Total Bilirubin)” value [5, 12] was 0.1 mg/dL. The “LDH (Lactate dehydrogenase)” value [5, 12] was 3303 IU/l, the SGOT [5, 12] was 213 IU/l and the SGPT [5, 12] was 99 IU/l. For the same molecule, the “Total PROTEIN” value [5, 12] was 5.7 g/dL, the “% inhibition (splenomegaly)” value ([6]; 5mcg per mouse i.v. with FV) was 75.44% and the “Spleen Weights, mean (x̄)” value ([6]; 5mcg per mouse i.v. with FV) was “x̄=0.3862 ±0.0353 grams”. The “% inhibition (splenomegaly)” value ([6]; 5mcg per mouse i.v. with FV, listed as PS) was “= 75.44%”, the “% inhibition (splenomegaly)” value ([6]; 20 mcg per mouse i.v. with FV) was 100% and the “Spleen Weights, mean (x̄)” value ([6]; 20 mcg per mouse i.v. with FV) was “x̄=0.1614 ±0.0253 grams”. The “% inhibition (splenomegaly)” value ([6]; 20 mcg per mouse i.v. with FV, listed as PS) was 100%, the “% inhibition (splenomegaly)” value ([6]; 50mcg per mouse i.v. with FV) was 100% and the “Spleen Weights, mean (x̄)” value ([6]; 50mcg per mouse i.v. with FV) was “x̄=0.1572 ±0.0217 grams”. For the same molecule, the “% inhibition (splenomegaly)” value ([6]; 50mcg per mouse i.v. with FV, listed as PS) was 100%, the “Spleen Weights” value ([6]; 5mcg per mouse i.v. mixed with FV, sacrificed ten days later) was 0.3425 grams and 0.3766 grams and 0.4005 grams and 0.4255 grams and the “Spleen Weights” value ([6]; 20 mcg per mouse i.v. mixed with FV) was 0.1655 grams and 0.1426 grams and 0.1433 grams and 0.1966 grams. The “Spleen Weights” value ([6]; 50mcg per mouse i.v. mixed with FV) was 0.1830 grams and 0.1674 grams and 0.1422 grams and 0.1365 grams.
